Laboratory results published in patent publication US20060223837A1 (priority 2005, published 2006).
Structures can show the parent of a compound that is named as a salt.

Tests used:
human VR1 [1] = molecular target: T1, human VR1 (Homo sapiens, UniProt Q8NER1); test: Human VR1 functional assay (FLIPR intracellular Ca2+); assay type: cell-based; conditions: for IC50: antagonism of capsaicin-induced Ca2+ increase, read-out: h IC50; for inhibition at 1 µM: read-out: h % I (1 μM); for inhibition at 5 µM: read-out: h % I (5 μM); for % Response Relative to EC80 of Capsaicin (12 μM) / Emax at 12 µM / Emax at 6 µM: agonist response; for Emax at 12 µM: read-out: % Response Relative to EC80 of Capsaicin (12 μM); for Emax at 6 µM: read-out: % Response Relative to EC80 of Capsaicin (6 μM); for EC50: agonist-induced Ca2+ increase, read-out: h EC50
T1 construct: expressed in transfected cells; host or cells: HEK293
T1 sequence (Q8NER1 whole entry): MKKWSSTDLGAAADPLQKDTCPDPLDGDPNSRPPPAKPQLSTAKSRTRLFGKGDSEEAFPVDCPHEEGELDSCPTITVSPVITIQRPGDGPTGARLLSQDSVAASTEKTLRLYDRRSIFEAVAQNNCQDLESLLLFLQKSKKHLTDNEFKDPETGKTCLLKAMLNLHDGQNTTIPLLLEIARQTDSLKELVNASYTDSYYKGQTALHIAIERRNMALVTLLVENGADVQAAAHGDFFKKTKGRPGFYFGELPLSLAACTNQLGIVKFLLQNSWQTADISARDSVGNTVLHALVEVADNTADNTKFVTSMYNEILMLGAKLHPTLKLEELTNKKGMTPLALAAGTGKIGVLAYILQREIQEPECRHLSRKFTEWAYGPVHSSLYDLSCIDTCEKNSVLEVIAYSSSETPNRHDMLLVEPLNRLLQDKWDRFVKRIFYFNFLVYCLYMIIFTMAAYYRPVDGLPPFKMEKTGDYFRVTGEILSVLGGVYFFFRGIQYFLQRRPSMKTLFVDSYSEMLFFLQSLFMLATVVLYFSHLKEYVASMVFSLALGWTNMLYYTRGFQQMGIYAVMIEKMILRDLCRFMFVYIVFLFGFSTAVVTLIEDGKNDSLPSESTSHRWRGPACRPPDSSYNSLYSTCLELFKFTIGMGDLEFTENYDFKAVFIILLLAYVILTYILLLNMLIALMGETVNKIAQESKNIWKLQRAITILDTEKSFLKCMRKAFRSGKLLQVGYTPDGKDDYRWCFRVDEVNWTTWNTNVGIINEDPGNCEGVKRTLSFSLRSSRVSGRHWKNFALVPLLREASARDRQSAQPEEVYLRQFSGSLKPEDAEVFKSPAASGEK
Method in brief: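 Read-out was Ca2+-dye fluorescence by FLIPR: compounds at varying concentrations were added to dye-loaded human VR1 HEK293 cells and monitored 5 min before capsaicin addition ([…], approx. EC80). Dose-response data, averaged over four wells, gave EC50 or IC50.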

human VR1 [2] = molecular target: T1, human VR1; test: Human VR1 [3H]RTX binding assay; conditions: for Ki: [3H]RTX binding, HEK293 membranes; for h Binding % I (1 μM) / inhibition at 1 µM: inhibition of [3H]RTX binding at 1 μM; for inhibition at 1 µM: read-out: h Binding % I (1 μM)
Procedure: Compounds of the present invention were tested for their ability to inhibit the binding of tritiated resiniferatoxin ([^3H] RTX) to human VR1 receptors in a [^3H] RTX binding assay, as previously described (Zhang, Sui-Po. Improved ligand binding assays for vanilloid receptors. PCT Int. Appl. (2002), WO 0233411 A1 20020425 AN 2002:315209; Grant, Elfrida R., Dubin, Adrienne E., Zhang, Sui-Po, Zivin, Robert A., Zhong, Zhong Simultaneous intracellular calcium and sodium flux imaging in human VR1-transfected human embryonic kidney cells: a method to resolve ionic dependence of VR1-mediated cell death. J. Pharmacol. Exp. ther., 2002, 300(1), 9-17.) HEK293 cells were transfected with human VR1 and washed with Hank's balanced Salt Solution, dissociated with cell dissociation buffer (Sigma), and then centrifuged at 1000× g for 5 min. Cell pellets were homogenized in cold 20 mM HEPES buffer (pH 7.4), containing 5.8 mM NaCl, 320 mM sucrose, 2 mM MgCl2, 0.75 CaCl2 and 5 mM KCl and centrifuged at 1000× g for 15 min. The resultant supernate was then centrifuged at 40000× g for 15 min. The pelleted membranes were stored in a freezer at −80 C.
Approximately 120 μg protein/ml from membranes were incubated with indicated concentrations of [^3H]RTX in 0.5 ml of the HEPES buffer (pH 7.4) containing 0.25 mg/mL fatty acid-free bovine serum albumin at 37 C for 60 min. After cooling the reaction mixture to 4 C, 0.1 mg (x-acid glycoprotein was added to each sample, which was incubated at 4 C for 15 min and then centrifuged at 18500× g for 15 min. The tip of the microcentrifuge tube containing the pellet was cut off. Bound radioactivity was quantified by scintillation counting. Non-specific binding was assessed in the presence of 200 nM unlabeled resiniferatoxin.
Data were calculated according to the equation: % inhibtion=(total binding−binding)*100/(total binding−non specific binding).
Ki values were calculated based on an average of duplicate measurements using a GraphPad Prism program.

[3] = inhibition of capsaicin response
[4] = inhibition of capsaicin response, 10 μM

Cc1cc(NC(=O)CCc2ccc(C(C)(C)C)cc2)ccc1-c1ccccc1O [Cpd 97]
IC50 (human VR1 [1]): 0.228 µM
inhibition at 1 µM (human VR1 [1]; [3]): 95%
inhibition at 5 µM (human VR1 [1]; [3]): 104%
Ki (human VR1 [2]): 0.015 µM

Cc1cn(-c2ccc(NC(=O)/C=C/c3ccc(SC(F)(F)F)cc3)cc2C(F)(F)F)cn1 [Cpd 208]
IC50 (human VR1 [1]): 0.041 µM
inhibition at 1 µM (human VR1 [1]; [3]): 100%
Ki (human VR1 [2]): 0.0887 µM

CC(C)(C)c1ccc(CCC(=O)Nc2ccc(C3CN=CO3)cc2)cc1 (stereo not drawn) [Cpd 194]
h % I (5 μM) (human VR1 [1]; [3]): 94%
h Binding % I (1 μM) (human VR1 [2]): 45%

O=C(CCc1ccc(C(F)(F)F)cc1)Nc1ccc(-c2cccc(CO)c2)nc1 [Cpd 149]
% Response Relative to EC80 of Capsaicin (12 μM) (human VR1 [1]): 101%
h Binding % I (1 μM) (human VR1 [2]): 9%

CC(C)(C)c1ccc(CCC(=O)Nc2cccc(-c3ccccn3)c2)cc1 [Cpd 109, 3-(4-tert-butyl-phenyl)-N-(3-pyridin-2-yl-phenyl)-propionamide hydrochloride]
Emax at 12 µM (human VR1 [1]): 47%
inhibition at 1 µM (human VR1 [2]): 1%

CC(C)(C)c1ccc(CCC(=O)Nc2ccc(-c3csnn3)cc2)cc1 [Cpd 197]
IC50 (human VR1 [1]): 0.000283 µM
h Binding % I (1 μM) (human VR1 [2]): 62%

CC(C)(C)c1ccc(CCC(=O)Nc2ccc(-c3ccc(O)cc3)c(CO)c2)cc1 [Cpd 94]
Emax at 6 µM (human VR1 [1]): 115%
EC50 (human VR1 [1]): 0.094 µM
inhibition at 1 µM (human VR1 [1]; [3]): 92%
Ki (human VR1 [2]): 0.042 µM

O=C(CCc1ccc(C(F)(F)F)cc1)Nc1ccc(-c2cccnc2)cc1 [Cpd 142]
% Response Relative to EC80 of Capsaicin (12 μM) (human VR1 [1]): 78%
h Binding % I (1 μM) (human VR1 [2]): 45%

O=C(CCc1ccc(C(F)(F)F)cc1)Nc1ccc(-c2cccnc2F)c(C(F)(F)F)c1 [Cpd 258]
inhibition at 5 µM (human VR1 [1]; [3]): 93%
Ki (human VR1 [2]): 0.5 µM

Cc1cccc(-c2ccc(NC(=O)CCc3ccc(C(C)(C)C)cc3)cc2)c1 [Cpd 28]
% Response Relative to EC80 of Capsaicin (12 μM) (human VR1 [1]): 81%
h Binding % I (1 μM) (human VR1 [2]): 48%

CN(C)C(=O)c1cccc(-c2cccc(NC(=O)CCc3ccc(C(C)(C)C)cc3)c2)c1 [Cpd 34]
h % I (10 μM) (human VR1 [1]; [4]): 14%
h Binding % I (1 μM) (human VR1 [2]): 17%

O=C(CCc1ccc(C(F)(F)F)cc1)Nc1ccc(-c2cccnc2)nc1 [Cpd 151]
% Response Relative to EC80 of Capsaicin (12 μM) (human VR1 [1]): 91%
h Binding % I (1 μM) (human VR1 [2]): 35%

O=C(CCc1ccc(C(F)(F)F)cc1)Nc1ccc(-c2cccc(O)c2)cc1 [Cpd 77]
Emax at 12 µM (human VR1 [1]): 88%
Ki (human VR1 [2]): 0.134 µM
inhibition at 1 µM (human VR1 [2]): 72%

O=C(CCc1ccc(C(F)(F)F)cc1)Nc1ccc(-n2cnc(Cl)c2Cl)cc1 [Cpd 263]
inhibition at 5 µM (human VR1 [1]; [3]): 67%
Ki (human VR1 [2]): 0.0844 µM

O=C(CCc1ccc(C(F)(F)F)cc1)Nc1ccc(-c2ccncc2)c2ccccc12 [Cpd 157]
h % I (5 μM) (human VR1 [1]; [3]): 12%
h Binding % I (1 μM) (human VR1 [2]): 1%

O=C(CCc1ccc(C(F)(F)F)cc1)Nc1ccc(-c2cccc(CO)c2)cc1 [Cpd 79]
% Response Relative to EC80 of Capsaicin (12 μM) (human VR1 [1]): 74%
h Binding % I (1 μM) (human VR1 [2]): 19%

O=C(CCc1ccc(C(F)(F)F)cc1)Nc1ccc(-n2ccnc2)c(C(F)(F)F)c1 [Cpd 207]
IC50 (human VR1 [1]): 0.0402 µM
inhibition at 1 µM (human VR1 [1]; [3]): 95%
inhibition at 5 µM (human VR1 [1]; [3]): 100%
Ki (human VR1 [2]): 0.0478 µM

Cc1cc(NC(=O)CCc2ccc(C(C)(C)C)cc2)cnc1-c1cccc(C#N)c1 [Cpd 246]
IC50 (human VR1 [1]): 0.543 µM
inhibition at 5 µM (human VR1 [1]; [3]): 105%
Ki (human VR1 [2]): 0.371 µM

Cc1cn(-c2ccc(NC(=O)CCc3ccc(C(F)(F)F)cc3)cc2C(F)(F)F)cn1 [Cpd 204, N-[4-(4-Methyl-imidazol-1-yl)-3-trifluoromethyl-phenyl]-3-(4-trifluoromethyl-phenyl)-propionamide]
IC50 (human VR1 [1]): 0.037 µM
inhibition at 1 µM (human VR1 [1]; [3]): 100%
Ki (human VR1 [2]): 0.0319 µM

O=C(CCc1ccc(C(F)(F)F)cc1)Nc1ccc(-c2ccncc2)nc1 [Cpd 152]
% Response Relative to EC80 of Capsaicin (12 μM) (human VR1 [1]): 100%
h Binding % I (1 μM) (human VR1 [2]): 37%

CC(C)(C)c1ccc(CCC(=O)Nc2cc(F)c(-c3ccccn3)c(F)c2)cc1 [Cpd 175]
inhibition at 1 µM (human VR1 [1]; [3]): 75%
Ki (human VR1 [2]): 0.142 µM

CC(=O)Nc1cccc(-c2ccc(NC(=O)CCc3ccc(C(F)(F)F)cc3)cn2)c1 [Cpd 145]
% Response Relative to EC80 of Capsaicin (12 μM) (human VR1 [1]): 92%
h Binding % I (1 μM) (human VR1 [2]): 16%

CC(C)(C)c1ccc(CCC(=O)Nc2ccc(-c3ccccc3O)c(F)c2)cc1 [Cpd 100]
Emax at 6 µM (human VR1 [1]): 96%
inhibition at 1 µM (human VR1 [1]; [3]): 87%
Ki (human VR1 [2]): 0.068 µM

CC(C)(C)c1csc(CCC(=O)Nc2ccc(-c3ccncc3)cc2)c1 [Cpd 138]
% Response Relative to EC80 of Capsaicin (12 μM) (human VR1 [1]): 113%
Ki (human VR1 [2]): 0.461 µM
h Binding % I (1 μM) (human VR1 [2]): 61%

O=C(CCc1ccc(C(F)(F)F)cc1)Nc1ccc(C2=NOS(=O)N2)c(C(F)(F)F)c1 (stereo not drawn) [Cpd 245, N-[4-(2-Oxo-2,3-dihydro-2λ^4-[1,2,3,5]oxathiadiazol-4-yl)-3-trifluoromethyl-phenyl]-3-(4-trifluoromethyl-phenyl)-propionamide]
IC50 (human VR1 [1]): 0.491 µM
inhibition at 1 µM (human VR1 [1]; [3]): 70%
inhibition at 5 µM (human VR1 [1]; [3]): 9%
Ki (human VR1 [2]): 0.974 µM

CC(C)(C)c1ccc(CCC(=O)Nc2cccc(-c3ccc(CO)cc3)c2)cc1 [Cpd 22]
h % I (10 μM) (human VR1 [1]; [4]): 1%
h Binding % I (1 μM) (human VR1 [2]): 1%

NC(=O)c1cccc(-c2ccc(NC(=O)CCc3ccc(C(F)(F)F)cc3)cc2)c1 [Cpd 48]
% Response Relative to EC80 of Capsaicin (12 μM) (human VR1 [1]): 57%
h Binding % I (1 μM) (human VR1 [2]): 2.1%

O=C(CCc1ccc(C(F)(F)F)cc1)Nc1cnc(-c2ccc(O)cc2)c(C(F)(F)F)c1 [Cpd 221]
IC50 (human VR1 [1]): 0.127 µM
inhibition at 5 µM (human VR1 [1]; [3]): 100%
Ki (human VR1 [2]): 0.0578 µM

CC(C)(C)c1ccc(CCC(=O)Nc2ccc(-c3cccc(O)c3)cc2)cc1 [Cpd 6, 3-(4-tert-butyl-phenyl)-N-(3′-hydroxy-biphenyl-4-yl)-propionamide]
Emax at 12 µM (human VR1 [1]): 24%
Ki (human VR1 [2]): 0.086 µM
inhibition at 1 µM (human VR1 [2]): 67%

CC(C)(C)c1ccc(CCC(=O)Nc2ccccc2-c2ccccn2)cc1 [Cpd 108]
Emax at 12 µM (human VR1 [1]): 98%
EC50 (human VR1 [1]): 0.935 µM
inhibition at 1 µM (human VR1 [2]): 16%

O=C(CCc1ccc(C(F)(F)F)cc1)Nc1cnc(-n2cnc(Cl)c2Cl)c(C(F)(F)F)c1 [Cpd 251]
IC50 (human VR1 [1]): 0.724 µM
inhibition at 5 µM (human VR1 [1]; [3]): 101%
Ki (human VR1 [2]): 0.135 µM

CC(=O)Nc1cccc(-c2ccc(NC(=O)CCc3ccc(C(C)(C)C)cc3)cc2C)c1 [Cpd 55]
Emax at 12 µM (human VR1 [1]): 69%
Ki (human VR1 [2]): 0.184 µM
inhibition at 1 µM (human VR1 [2]): 66%

Cc1cc(NC(=O)CCc2ccc(C(C)(C)C)cc2)ccc1-c1cccc(O)c1 [Cpd 59, 3-(4-tert-butyl-phenyl)-N-(3′-hydroxy-2-methyl-biphenyl-4-yl)-propionamide]
IC50 (human VR1 [1]): 0.49 µM
inhibition at 10 µM (human VR1 [1]; inhibition of capsaicin response, 10 μM, read-out: h % I (10 μM)): 101%
Ki (human VR1 [2]): 0.0107 µM
inhibition at 1 µM (human VR1 [2]): 103%

CC(C)(C)c1ccc(CCC(=O)Nc2cnc(-n3cnc(Cl)c3Cl)c(C(F)(F)F)c2)cc1 [Cpd 224]
IC50 (human VR1 [1]): 0.147 µM
inhibition at 5 µM (human VR1 [1]; [3]): 101%
Ki (human VR1 [2]): 0.0184 µM

Cc1cc(NC(=O)CCc2ccc(C(C)(C)C)cc2)ccc1-c1ccncc1 [Cpd 180]
Emax at 6 µM (human VR1 [1]): 96%
inhibition at 1 µM (human VR1 [1]; [3]): 91%
Ki (human VR1 [2]): 0.042 µM
